Laboratory results from patent publication US8835631B2, “Therapeutic agent for cerebral infarction” (Mitsubishi Tanabe Pharma Corporation, priority 2007, dated 2014).

Experiments:
MCP-1 = MCP-1 production in LPS-administered mouse; type: in vivo, male BALB/c mouse; settings: for MCP-1 production in LPS model mouse (in words): 10 mg/kg orally 30 min before LPS; for MCP-1 production (%): 10 mg/kg orally 30 min before LPS 500 μg/kg i.p., plasma 90 min after LPS, ratio to group without test compound
Description: (§1) LPS (lipopolysaccharide, derived from E. coli 0111:B4, Sigma, 500 μg/kg) was intraperitoneally administered to male BALB/c mouse (Charles River Laboratories Japan). After 90 min after LPS administration, the blood was taken under anesthesia, and centrifuged to collect plasma. TNF-α was measured using an Immunoassay Kit (R&D Systems) and IL-10, MCP-1 and IL-6 were measured using an Immunoassay Kit (BIOSOURCE). Test compound A, the compound synthesized in Example 3 (test compound B) and the compound synthesized in Example 7 (test compound C) were dissolved in saline, and the mixture was orally administered at 10 mg/kg 30 min before LPS administration. As shown in the Tables, the effect of each test compound on respective […] cytokines was calculated as the ratio of each cytokine concentration in the blood of the group administered with each test compound to each cytokine concentration in the blood of the group free of administration of each test compound.

[1] = Evaluation of bioavailability in rat; type: in vivo, male SD(IGS) rats; settings: plasma; for AUC0-last / AUC0-∞ / Cmax at 5 min / Cmax: Mean + SD; for Cmax at 5 min / bioavailability / Cmax: male, SD(IGS); for Cmax at 5 min: iv, read-out: Cmax (C5 min, plasma concentration at 5 min after administration); for bioavailability: oral, 3 mg/kg p.o. vs 3 mg/kg i.v., F = (AUC0-∞,p.o./AUC0-∞,i.v.,mean) × (Dosei.v./Dosep.o.) × 100; for Cmax: po, read-out: Cmax
Description: Test compound A, test compound B and test compound C were each dissolved in 0.5% aqueous HPMC (hydroxypropyl methylcellulose) solution in the case of oral administration, or in saline in the case of intravenous administration, and they were orally or intravenously administered to male SD(IGS) rats (Charles River Laboratories Japan) by 3 mg/kg. The concentration of unchanged drug in the plasma of each rat was measured, and bioavailability (F(%)) was calculated (F (%)=(AUC0-∞,p.o./AUC0-∞,i.v.,mean)×(Dosei.v./Dosep.o.)×100). The test compound was administered by gavage using an oral gavage needle (p.o.), or administered in the tail vein (i.v.). The blood samples were collected at 15 and 30 min, 1, 2, 4, 6, 8 and 24 hr after administration in the case of oral administration, and 5 and 30 min, 1, 2, 4, 6, 8 and 24 hr after administration in the case of intravenous administration.
The results are shown in Tables 4 (test compound A), 5 (test compound B) and 6 (test compound C). The Cmax values for i.v. in Tables 4, 5 and 6 show plasma concentration at 5 min after administration.

IL-10 = IL-10 production in LPS-administered mouse; type: in vivo, male BALB/c mouse; settings: for IL-10 in LPS model mouse (in words): 10 mg/kg orally 30 min before LPS; for IL-10 production (%): Table 1, 10 mg/kg orally 30 min before LPS 500 μg/kg i.p., plasma 90 min after LPS, ratio to group without test compound
Description: as §1

[2] = system: rat middle cerebral artery occlusion-reperfusion model; experiment: Cerebral infarction volume in rat middle cerebral artery occlusion-reperfusion model; type: in vivo, male Wistar rats; settings: 10 mg/kg intravenously 30 min after occlusion, reperfusion 90 min after occlusion, brain isolated 24 hr later, TTC stain; FIG. 7
Description: The middle cerebral artery of male Wistar rats (Japan Laboratory Animals Inc.) was obstructed with suture (silicon-coated nylon thread), and saline (Vehicle, n=7), test compound A (10 mg/kg, n=6) dissolved in saline, test compound B ([…], n=7) dissolved in saline, and test compound C (10 mg/kg, n=7) dissolved in saline were each intravenously administered in 30 min after occlusion and the artery was reperfused in 90 min after occlusion. The brain was isolated 24 hr later. A 2 mm brain strip was prepared, and the strip was stained with PBS (pH 7.4, 37° C.) containing 1% 2,3,5-triphenyltetrazolium chloride (TTC, Wako Pure Chemical Industries, Ltd.). The cerebral infarction area was measured by image analysis and the cerebral infarction volume was calculated.

TNF-α = TNF-α production in LPS-administered mouse; type: in vivo, male BALB/c mouse; settings: for TNF-α production in LPS model mouse (in words): 10 mg/kg orally 30 min before LPS; for TNF-α production (%): Table 1, 10 mg/kg orally 30 min before LPS 500 μg/kg i.p., plasma 90 min after LPS, ratio to group without test compound
Description: as §1

[3] = Evaluation of intracerebral transitivity in rat; type: in vivo, SD(IGS) rats; settings: for Kp at 1 h / Kp at 4 h: SD(IGS), brain, po, 3 mg/kg orally, read-out: Kp value (ratio of plasma concentration and intracerebral concentration); for Kp at 1 h: 1 hr after administration; for Kp at 4 h: 4 hr after administration; for intracerebral transitivity (in words): orally, test compound A 30 mg/kg, test compounds B and C 3 mg/kg
Description: The test compound A dissolved in 0.5% aqueous HPMC solution was orally administered at 30 mg/kg, and test compound B and test compound C dissolved in 0.5% aqueous HPMC solution were each orally administered at 3 mg/kg to SD(IGS) rats (Charles River Laboratories Japan). At 1 hr and 4 hr after the administration of the test compound, blood samples were collected, and the brain (cerebral•cerebellum) was isolated. The plasma concentration and intracerebral concentration of each test compound were measured, and the ratio (Kp value) thereof was calculated, based on which the intracerebral transitivity was evaluated.

IL-6 = IL-6 production in LPS-administered mouse; type: in vivo, male BALB/c mouse; settings: for IL-6 production in LPS model mouse (in words): 10 mg/kg orally 30 min before LPS; for IL-6 production (%): 10 mg/kg orally 30 min before LPS 500 μg/kg i.p., plasma 90 min after LPS, ratio to group without test compound
Description: as §1

IL-1β receptor [4] = settings: non-patent document 6; cited from earlier work
IL-1β receptor [5] = molecular target: T1, IL-1β receptor (Homo sapiens, UniProt P14778); settings: clinical trial (Phase II); non-patent document 7; cited from earlier work
T1 sequence (P14778 18-569): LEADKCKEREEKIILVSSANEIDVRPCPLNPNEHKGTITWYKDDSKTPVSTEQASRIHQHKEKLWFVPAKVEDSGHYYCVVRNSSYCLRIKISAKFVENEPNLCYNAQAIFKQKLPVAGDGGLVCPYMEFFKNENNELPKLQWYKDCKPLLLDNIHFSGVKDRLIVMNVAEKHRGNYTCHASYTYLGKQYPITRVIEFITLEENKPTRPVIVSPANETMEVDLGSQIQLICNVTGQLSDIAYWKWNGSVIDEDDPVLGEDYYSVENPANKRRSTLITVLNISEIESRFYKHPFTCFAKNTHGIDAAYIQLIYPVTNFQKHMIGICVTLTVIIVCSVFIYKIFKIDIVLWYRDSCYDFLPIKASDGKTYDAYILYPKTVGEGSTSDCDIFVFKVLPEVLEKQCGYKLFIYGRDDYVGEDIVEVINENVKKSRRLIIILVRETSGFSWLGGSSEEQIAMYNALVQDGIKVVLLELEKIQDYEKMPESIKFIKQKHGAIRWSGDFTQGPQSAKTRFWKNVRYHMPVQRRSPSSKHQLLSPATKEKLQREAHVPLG

Compound | MCP-1 production in LPS model mouse (in words) (MCP-1) | AUC0-last ([1]; 3 mg/kg i.v.) | AUC0-∞ ([1]; 3 mg/kg i.v.) | AUC0-last ([1]; 3 mg/kg p.o.) | AUC0-∞ ([1]; 3 mg/kg p.o.) | Cmax at 5 min ([1]; 3 mg/kg i.v.) | bioavailability [1] | Cmax ([1]; 3 mg/kg p.o.) | IL-10 in LPS model mouse (in words) (IL-10) | IL-10 production (%) (IL-10) | suppression of cerebral infarction volume [2] | TNF-α production in LPS model mouse (in words) (TNF-α) | TNF-α production (%) (TNF-α) | Kp at 1 h [3] | Kp at 4 h [3] | intracerebral transitivity (in words) [3] | IL-6 production in LPS model mouse (in words) (IL-6) | further results
CC(=O)NC1(c2ccc(CN3C[C@@H]4C[C@H]3CN4c3ncccn3)cc2)CC1 [test compound B, N-[1-(4-{[(1S,4S)-5-(pyrimidin-2-yl)-2,5-diazabicyclo[2.2.1]hept-2-yl]methyl}phenyl)cyclopropyl]acetamide] | suppressed | 1449.8 ± 123.3 ngh/mL | 1464.6 ± 122.3 ngh/mL | 1082.8 ± 171.1 ngh/mL | 1105.7 ± 170.8 ngh/mL | 1600 ± 58.3 ng/mL | 75.5% | 471 ng/mL | increased | 350.1% | 17.8% | suppressed | 53.9% | 0.8 | 1.3 | intracerebrally transferred | suppressed | MCP-1 production (%) (MCP-1; Table 2): 63.9%; IL-6 production (%) (IL-6; Table 2): 78.7%
recombinant IL-1ra: an IL-1β receptor antagonist (recombinant IL-1ra) | – | – | – | – | – | – | – | – | – | – | – | – | – | – | – | – | – | cerebral ischemic disorder (IL-1β receptor [4]): alleviating action; cerebral ischemic disorder (IL-1β receptor [5]): alleviating effect
CC(=O)NC1(c2ccc(CN3CCN(c4ncccn4)CC3)cn2)CC1 [test compound C, N-(1-{5-[{4-(pyrimidin-2-yl)piperazin-1-yl}methyl]pyridin-2-yl}cyclopropyl)acetamide] | suppressed | 10173.6 ± 3012.9 ngh/mL | 10446.3 ± 2852.3 ngh/mL | 8192.2 ± 3114.3 ngh/mL | 8434.3 ± 2981.5 ngh/mL | 4510 ± 359 ng/mL | 80.7% | 2000 ng/mL | increased | 401.4% | 43.2% | suppressed | 50.6% | 0.8 | 0.9 | intracerebrally transferred | suppressed | MCP-1 production (%) (MCP-1; Table 3): 72.1%; IL-6 production (%) (IL-6; Table 3): 81%
